Patent US20230212180A1, “SUBSTITUTED PYRAZINE COMPOUND, PHARMACEUTICAL COMPOSITION COMPRISING SAME, AND USE THEREOF” (Sichuan Kelun-Biotech Biopharmaceutical Co., Ltd., priority 2020, published 2023)

Tests used:
[1] = target: T1, recombinant full-length human PTPN11 (SHP2) (Homo sapiens, UniProt Q06124); experiment: Inhibition of in vitro enzyme activity of SHP2 (DiFMUP fluorescence endpoint assay); format: biochemical; conditions: SHP2 0.5 nM, DiFMUP 200 μM, IRS-1 0.5 μM; 60 min incubation
T1 construct: recombinant full-length human PTPN11 (SHP2), active (SignalChem); purchased SignalChem
T1 sequence (Q06124 1-593): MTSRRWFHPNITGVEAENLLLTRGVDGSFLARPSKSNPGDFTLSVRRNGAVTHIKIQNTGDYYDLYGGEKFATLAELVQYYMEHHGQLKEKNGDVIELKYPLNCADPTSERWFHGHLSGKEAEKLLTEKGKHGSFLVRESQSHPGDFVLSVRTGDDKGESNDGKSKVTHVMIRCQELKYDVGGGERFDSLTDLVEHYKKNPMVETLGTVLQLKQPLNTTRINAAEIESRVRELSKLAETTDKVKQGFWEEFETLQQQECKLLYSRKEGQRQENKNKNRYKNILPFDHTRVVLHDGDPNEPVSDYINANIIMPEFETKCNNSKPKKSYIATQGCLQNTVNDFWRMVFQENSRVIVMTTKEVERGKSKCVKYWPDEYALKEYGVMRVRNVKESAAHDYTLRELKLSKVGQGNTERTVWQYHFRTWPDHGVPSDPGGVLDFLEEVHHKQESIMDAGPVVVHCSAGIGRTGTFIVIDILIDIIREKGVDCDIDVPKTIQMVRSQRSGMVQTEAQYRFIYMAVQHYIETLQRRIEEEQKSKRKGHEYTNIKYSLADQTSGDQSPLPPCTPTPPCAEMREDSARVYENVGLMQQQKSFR
Description: Test Example 1: Experiment on the Inhibition of In Vitro Enzyme Activity of SHP2 (Protein Phosphatase)
phosphatase: recombinant full-length human PTPN11 (SHP2), active (SignalChem);
substrate: 6,8-difluoro-4-methylumbelliferyl phosphate (DiFMUP) (Invitrogen);
activating peptide: IRS1_pY1172(dPEG8)pY1222 (IRS1) (BPS Bioscience);
terminator: bpv(phen) (bpv) (Abcam).
SHP2 concentration: 0.5 nM;
DiFMUP concentration: 200 μM;
IRS-1 concentration: 0.5 μM;
bpv concentration: 160 μM;
buffer systems: 60 mM Hepes pH 7.2; 75 mM NaCl; 75 mM KCl; 0.05% surfactant P20; 1 mM EDTA; 5 mM DTT;
incubation duration of compound and enzyme: 60 minutes;
reaction time of enzyme and substrate: 30 minutes;
parameters for microplate reader: BMG PHERAstar fluorescence microplate reader at an excitation wavelength of 340 nm and an emission wavelength of 450 nm.
Test group: A mixture of the test compound and the phosphatase SHP2 together with the activating peptide IRS-1 were incubated in the buffer system at room temperature for 60 minutes. The substrate DiFMUP was added to initiate the reaction and incubated at room temperature for 30 minutes. Thereafter, bpv was added to terminate the reaction. The reaction plate was placed in the microplate reader, and the fluorescence intensities of the wells in the plate were measured using an endpoint assay.
Negative group: The experimental method for the negative group was the same as that for the test group, except that the test compound was substituted with 0.05% aqueous solution of DMSO.
Blank group: The experimental method for the blank group was the same as that for the test group, except that the test compound was substituted with 0.05% aqueous solution of DMSO and that SHP2 was not added.
The relative inhibitory activity was calculated for the test group at each concentration based on the following equation: inhibition rate (%)=100%−(the fluorescence intensity of the test group−the fluorescence intensity of the blank group)/(the fluorescence intensity of the negative group−the fluorescence intensity of the blank group)×100%. The half maximal inhibitory concentration (IC50) of the compound was calculated by fitting the curve according to the four-parameter logistic model.

[2] = test system: KYSE-520 cell (human esophageal squamous cell carcinoma cell); experiment: Inhibition of the proliferation activity of KYSE-520 cell (CellTiter-Glo); format: cell-based; conditions: 120 h, KYSE-520 cell proliferation, 5 days
Description: Test Example 2: Experiment on the Inhibition of the Proliferation Activity of KYSE-520 Cell (Human Esophageal Squamous Cell Carcinoma Cell)
cell: KYSE-520 (JCRB Cell Bank);
kit: CellTiter-Glo® Luminescent Cell Viability Assay Kit (Promega).
inoculation amount of cell: 1500 cells/well;
incubation conditions for compound: 37° C., 5% CO2;
incubation duration: 5 days;
detecting temperature: room temperature;
chemiluminescence detection using the BMG PHERAstar FS reader.
Cells were cultured in a medium containing 10% fetal bovine serum under the culture conditions of 37° C. and 5% CO2. An appropriate amount of cells were plated into a 96-well plate and cultured overnight in an incubator to allow the cells to adhere to the wall. The following day, the medium was removed and a complete medium containing a pre-diluted compound was added and incubated at 37° C. for 5 days. On the fifth day, the detection reagent CellTiter-Glo® was added into each well. Chemiluminescence was adopted to detect the relative luminescence units (RLUs) of the wells.
The result of a well containing cell-free medium, treated with CellTiter-Glo®, was obtained as the blank value. Cell viability (%)=(sample RLU−blank RLU)/(vehicle RLU−blank RLU)×100%, and maximum inhibition rate (%)=100%−cell viabilitymax. conc. (%). The half maximal inhibitory concentration (IC50) of the compound was calculated by fitting the curve according to the four-parameter logistic model.

hERG = target: T2, hERG (Homo sapiens, UniProt Q12809); experiment: Biochemical assay for hERG inhibition (Predictor hERG Fluorescence Polarization Assay Kit); format: binding
T2 construct: purchased ThermoFisher
T2 sequence (Q12809 whole entry): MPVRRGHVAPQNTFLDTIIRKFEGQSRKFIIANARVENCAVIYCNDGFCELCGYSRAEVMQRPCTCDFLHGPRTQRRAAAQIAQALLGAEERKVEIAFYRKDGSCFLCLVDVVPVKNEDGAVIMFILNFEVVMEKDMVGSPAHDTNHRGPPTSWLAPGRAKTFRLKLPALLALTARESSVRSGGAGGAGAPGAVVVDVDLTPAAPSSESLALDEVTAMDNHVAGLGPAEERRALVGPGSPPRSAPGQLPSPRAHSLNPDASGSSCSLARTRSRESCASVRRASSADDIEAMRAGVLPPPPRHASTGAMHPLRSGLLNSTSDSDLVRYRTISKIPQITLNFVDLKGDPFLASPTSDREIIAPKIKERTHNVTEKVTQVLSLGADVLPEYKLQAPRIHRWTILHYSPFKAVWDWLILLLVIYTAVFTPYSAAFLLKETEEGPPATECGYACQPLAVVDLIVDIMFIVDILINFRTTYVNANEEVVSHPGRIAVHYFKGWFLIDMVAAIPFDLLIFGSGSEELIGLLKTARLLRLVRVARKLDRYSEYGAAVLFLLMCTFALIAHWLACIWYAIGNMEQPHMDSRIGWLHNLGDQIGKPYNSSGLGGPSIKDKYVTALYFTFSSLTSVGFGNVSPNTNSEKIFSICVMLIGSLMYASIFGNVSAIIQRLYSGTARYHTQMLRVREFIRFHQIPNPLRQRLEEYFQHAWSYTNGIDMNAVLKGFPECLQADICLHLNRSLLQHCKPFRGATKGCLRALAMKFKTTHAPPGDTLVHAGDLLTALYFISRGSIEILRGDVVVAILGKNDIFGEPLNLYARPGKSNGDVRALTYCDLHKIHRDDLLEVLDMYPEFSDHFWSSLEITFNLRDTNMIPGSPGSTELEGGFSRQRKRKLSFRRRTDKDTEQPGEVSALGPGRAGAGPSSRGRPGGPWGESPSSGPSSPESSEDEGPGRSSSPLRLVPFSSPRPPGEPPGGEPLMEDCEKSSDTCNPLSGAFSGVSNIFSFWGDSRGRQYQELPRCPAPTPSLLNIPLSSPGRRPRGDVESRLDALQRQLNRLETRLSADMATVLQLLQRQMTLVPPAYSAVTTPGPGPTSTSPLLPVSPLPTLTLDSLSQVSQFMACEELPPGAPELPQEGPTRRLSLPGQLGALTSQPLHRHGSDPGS
Description: Test Example 3: Biochemical Assay for hERG Inhibition
kit: Predictor™ hERG Fluorescence Polarization Assay Kit (ThermoFisher) containing:
Compound E4031 as a positive control;
tracer concentration: 1 nM;
incubation duration: 2 hours;
parameters for microplate reader: BMG PHERAstar FS fluorescence microplate reader.
Test group: The test compounds at different concentrations were added into a microplate containing hERG cell membrane, and the tracer with a high affinity for hERG was then added into each well. The microplate was incubated at 25° C. for 2 hours before detection of the change in fluorescence polarization value (mP) (excitation wavelength: 540 nm; emission wavelength: 590 nm) using a multi-mode microplate reader.
Positive control group: The experimental method for the positive control group was the same as that for the test group, except that the test compound was replaced with 30 μM Compound E4031.
Blank control group: The experimental method for the blank control group was the same as that for the test group, except that the test compound was replaced with the hERG buffer and that the hERG cell membrane was not added.
Based on the data ratios, the percentage inhibition (%) of the compounds of the present disclosure against hERG at different concentrations was calculated and the range of the half maximal inhibitory concentration (IC50) of the compounds was determined. Percentage inhibition (%)=(1−(mP of the test compound−mP of the positive control group)/(mP of the blank control group−mP of the positive control group))×100%.

| Compound | IC50 [1] [nM] | IC50 [2] [nM] | IC50 (hERG) [nM] |
| --- | --- | --- | --- |
| C[C@@H]1OCC2(CCN(c3ncc(Sc4ccnc(N5CCCC5CO)c4Cl)nc3CF)CC2)[C@@H]1N (stereo partly drawn) [Example 4, (1-(4-(5-((3S,4S)-4-amino-3-methyl-2-oxa-8-azaspiro[4.5]decan-8-yl)-6-(fluoromethyl)pyrazin-2-ylthio)-3-chloropyridin-2-yl)pyrrolidin-2-yl)methanol] | 4.1 | 170 | > 10000 |
| N[C@@H]1COCC12CCN(c1ncc(Sc3ccnc(N4CCCC4CO)c3Cl)nc1CO)CC2 (stereo partly drawn) [Example 7, (3-((S)-4-amino-2-oxa-8-azaspiro[4.5]decan-8-yl)-6-(3-chloro-2-(2-(hydroxymethyl)pyrrolidin-1-yl)pyridin-4-ylthio)pyrazin-2-yl)methanol] | 4.6 | 770 | > 10000 |
| C[C@@H]1OCC2(CCN(c3ncc(Sc4ccnc(N5CC[C@H]5CO)c4Cl)nc3CO)CC2)[C@@H]1N [Example 9, (3-((3S,4S)-4-amino-3-methyl-2-oxa-8-azaspiro[4.5]decan-8-yl)-6-(3-chloro-2-((S)-2-(hydroxymethyl)azetidin-1-yl)pyridin-4-ylthio)pyrazin-2-yl)methanol] | 1.3 | 220 | > 10000 |
| C[C@@H]1OCC2(CCN(c3ncc(Sc4ccnc(N5CCCC5CC#N)c4Cl)nc3CO)CC2)[C@@H]1N (stereo partly drawn) [Example 18, 2-(1-(4-(5-((3S,4S)-4-amino-3-methyl-2-oxa-8-azaspiro[4.5]decan-8-yl)-6-(hydroxymethyl)pyrazin-2-ylthio)-3-chloropyridin-2-yl)pyrrolidin-2-yl)acetonitrile] | 1.9 | 240 | > 10000 |
| C[C@@H]1OCC2(CCN(c3ncc(Sc4ccnc(N5CC(C(C)(C)C#N)C5)c4Cl)nc3CO)CC2)[C@@H]1N [Example 30, 2-(1-(4-(5-((3S,4S)-4-amino-3-methyl-2-oxa-8-azaspiro[4.5]decan-8-yl)-6-(hydroxymethyl)pyrazin-2-ylthio)-3-chloropyridin-2-yl)azetidin-3-yl)-2-methylpropanenitrile] | 4 |  | > 10000 |
| C[C@@H]1OCC2(CCN(c3ncc(Sc4ccnc(N5CC(F)(CO)C5)c4Cl)nc3CO)CC2)[C@@H]1N [Example 39, (3-((3S,4S)-4-amino-3-methyl-2-oxa-8-azaspiro[4.5]decan-8-yl)-6-(3-chloro-2-(3-fluoro-3-(hydroxymethyl)azetidin-1-yl)pyridin-4-ylthio)pyrazin-2-yl)methanol] | 1.4 | 20 | > 10000 |
